Results reported in US20260364210A1, “COMPOSITIONS AND METHODS FOR TRANSGLUTAMINASE-MEDIATED ENDOCYTOSIS” (The Board of Trustees of the Leland Stanford Junior …, priority 2022, published 2026).
Starred links: 1 amine or outer side, 2 acyl side, 3 side chain; linkers in the order of their positions; H or OH if unused. Non-standard residues stand in square brackets, D forms with d. Residues, ends and D or L forms follow the SMILES beside them. Groups on a side chain read outwards from the residue. *: point of attachment. Biotin = O=C1N[C@H]2[C@H](CS[C@H]2CCCCC(=O)*)N1; X1 = CN(C)C(=O)/C=C/CC[C@H](N[*:1])C(=O)[*:2]; PEG4 = NCCOCCOCCOCCOCCC(=O)O; Dab = NCC[C@H](N)C(=O)O

What was measured:
chymotrypsin = experiment: Metabolism by chymotrypsin; format: in vitro ADME; conditions: role: substrate
From the text: (§1) FIGS. 14A-14B. Metabolic stability of HB-230 and HB-2121. (A) HB-230 is transformed by chymotrypsin to give the C-terminal carboxylic acid. This metabolite is subsequently cleaved by carboxypeptidase to give the tetrapeptide without the terminal phenylalanine. (B) HB-2121 is stable to both chymotrypsin and carboxypeptidase mediated metabolism.
(§2) HB-2121 is analogous to the TG2 inhibitor/probe HB-230 but with one modification; the primary amide C-terminus of HB-230 was replaced with a tertiary dimethyl amide. This change greatly enhances the gastrointestinal stability of the probe.

pepsin = experiment: Metabolism by pepsin; format: in vitro ADME; conditions: role: substrate
From the text: as §2

[1] = tested on: early endosome antigen-1 (EEA-1); experiment: Colocalization with early endosomes (EEA-1 antibody staining) in NRK cells; format: cell-based, rat; conditions: co-incubated with α2M, 90 min
Procedure: (§3) To establish the identity of these large intracellular puncta, NRK cells were transfected with RFP tagged lysosomal-associated membrane protein (LAMP-1). Wild-type and transfected cells were co-incubated with α2M and HB230 for 90 min prior to fixation. To test the hypothesis that the large puncta corresponded to early endosomes, fixed wild-type cells were stained with an antibody against early endosome antigen-1 (EEA-1).

trypsin = experiment: Metabolism by trypsin; format: in vitro ADME; conditions: role: substrate
From the text: as §2

carboxypeptidase = experiment: Metabolism by carboxypeptidase; format: in vitro ADME; conditions: role: substrate, subsequent to chymotrypsin
From the text: as §1, §2

LRP-1 knockout MEFs = experiment: Uptake of HB230 and α2M in LRP-1 knockout MEFs; format: cell-based; conditions: exogenous TRX and betamethasone, with α2M
[2] = tested on: normal rat kidney (NRK) cells; experiment: Uptake of fluorescent probe by NRK cells with or without α2M; format: cell-based
From the text: (§4) (C) Fluorescently tagged α2M colocalizes strongly with HB-230.
FIG. 15. Uptake of HB-2121.
Puncta of two distinct sizes were observed.
To verify that HB230 internalization was dependent on TG2 activity, HB258 was designed and synthesized as a control probe. This dihydro-analog is otherwise identical to HB230 but lacks its electrophilic warhead and is therefore unable to irreversibly bond to the active site C277 residue of TG2.

elastase = experiment: Metabolism by elastase; format: in vitro ADME; conditions: role: substrate
From the text: as §2

[3] = tested on: lysosomal-associated membrane protein (LAMP-1); experiment: Colocalization with RFP-tagged LAMP-1 in transfected NRK cells; format: cell-based, rat; conditions: co-incubated with α2M, 90 min; large puncta
Procedure: as §3

α2M = experiment: Co-endocytosis of HB230 and fluorescent α2M in NRK cells; format: cell-based; conditions: larger, but not smaller, puncta
Procedure: as §4
To obtain definitive evidence for co-endocytosis of HB230 and α2M, a fluorescent batch of α2M was prepared.

WT MEFs = experiment: Uptake of HB230 and α2M in wild-type MEFs; format: cell-based; conditions: exogenous TRX and betamethasone, with α2M
From the text: Low density lipoprotein (LDL) receptor-related protein 1 (LRP-1, a.k.a., (α2M receptor or CD91), a member of the LDL receptor family, is responsible for receptor-mediated endocytosis of α2M. Although this receptor is expressed on the surface of a wide range of cell types within the body, α2M endocytosis by LRP-1 is only triggered when this ubiquitous plasma protein undergoes a conformational change upon binding to its protease or non-protease ligands (Bres and Faissner, 2019). We sought to establish whether endocytosis of the ternary α2M-TG2-peptide complex was mediated by LRP-1 using pharmacologic inhibitors of clathrin mediated endocytosis.

[4] = Endocytosis of fluorescent streptavidin by NRK cells; format: cell-based, rat; conditions: 2 μM HB2110, 1 μM Cy5-conjugated streptavidin
Procedure: FIG. 11: (A) Treating NRK cells with increasing concentrations of HB-3-003 in the presence of fluorescently tagged streptavidin leads to increased internalization of streptavidin after a 90 min treatment. (B) Quantification of dose response.
In order to determine the ability of this pathway to clear specifically targeted proteins from the extracellular environment, we synthesized a pentapeptide harboring the electrophilic warhead and a PEG-4 biotin conjugated to the DAB substituted Y amino acid (HB2110). Streptavidin is expected to bind to the biotin arm of the probe, and thus be endocytosed along with the rest of the complex as previously described. To test this hypothesis NRK cells were treated with 2 μM HB2110 and 1 μM Cy5-conjugated streptavidin.
We also synthesized the equivalent pentapeptide harbouring a Gln residue in the place of the electrophilic warhead, with biotin conjugated to the DAB substituted Y amino acid through a PEG linker (HB3-3). We then assed the ability of cells to endocytose fluorescent streptavidin in the presence of HB3-3 and α2M.

Structure (SMILES) | metabolism by chymotrypsin (chymotrypsin) | resistance to metabolism by pepsin (pepsin) | localization relative to EEA-1 [1] | resistance to metabolism by trypsin (trypsin) | metabolism by carboxypeptidase (carboxypeptidase) | formation of large co-stained puncta (LRP-1 knockout MEFs) | uptake by NRK cells in the presence of α2M ([2]; 100 μg/mL of α2M) | uptake by NRK cells ([2]; 1 TM (so in the source) exogenous probe, 90 min) | uptake by NRK cells on supplementation with α2M ([2]; NRK cells supplemented with increasing α2M) | resistance to metabolism by elastase (elastase) | co-localization with RFP-tagged LAMP-1 [3] | overlap with fluorescent α2M (α2M) | internalization of ternary complex (WT MEFs) | colocalization of Cy5-streptavidin with α2M [4]
CC(=O)N1CCC[C@H]1C(=O)N[C@@H](CC/C=C/C(=O)N(C)C)C(=O)N[C@@H](CCNC(=O)CCCCC[N+]1=C(/C=C/C=C/C=C2/N(C)c3ccc(S(=O)(=O)O)cc3C2(C)C)C(C)(C)c2cc(S(=O)(=O)[O-])ccc21)C(=O)N1CCC[C@H]1C(=O)N[C@@H](Cc1ccccc1)C(N)=O [HB-230, AcPro-HWE-(Dab-SCy5)-Pro-Phe] | enzymatic deamidation at the C-terminus (CONH2→CO2H) | resistance to metabolism | appear in distinct sub-cellular compartments for the most part | resistance to metabolism | subsequent cleavage of the C-terminal phenylalanine | marked defect in their ability to form large co-stained puncta | robustly taken up | robust uptake | strong dose-dependent increase in uptake of HB230 up to ~100 μg/ml | resistance to metabolism | strongly co-localizes with RFP-tagged LAMP-1 in the large puncta | strong overlap | internalized the ternary complex | –
CC(=O)N1CCC[C@H]1C(=O)N[C@@H](CC/C=C/C(=O)N(C)C)C(=O)N[C@@H](CCNC(=O)CCOCCOCCOCCOCCNC(=O)CCCC[C@@H]1SC[C@@H]2NC(=O)N[C@@H]21)C(=O)N1CCC[C@H]1C(=O)N[C@@H](Cc1ccccc1)C(N)=O [HB-2110] (Ac-P[X1][Dab]([PEG4-Biotin])PF-NH2) | – | – | – | – | – | – | – | – | – | – | – | – | – | found to colocalize with α2M in the lysosomal compartment
